≈ marks a conversion by molar mass, not a printed value.
Legend:
[1] = Solubility of organic compounds in supporting electrolyte at room temperature; format: physicochemical; settings: for solubility: thermodynamic from solid
From the text: The last recorded amount was recognized as the solubility of the organics.

[2] = Cyclic voltammetry in three-electrode cell (glassy carbon / Pt foil / Ag wire); format: physicochemical
From the text: FIGS. 2a and 2b compare cyclic voltammetry curves of 0.1 M 2-methoxyhydroquinone in pure water and other aqueous ionic liquid, aqueous lithium salt (molality: 10 m), with and without the addition of 1 M HCl. Potential sweep rate: 50 mV s^−1. Working electrode: glassy carbon; Counter electrode: Pt foil; Reference electrode: Ag wire.
FIG. 5a depicts the chemical structure of 2-[(2,5-dihydroxyphenyl)sulfanyl]ethan-1-aminium chloride. FIGS. 5b and 5c show the cyclic voltammetry curves of 0.1 M 2-[(2,5-dihydroxyphenyl) sulfanyl]ethan-1-amonium chloride in pure water and in 1 M HCl. Potential sweep rate: 20 mV s^−1. Working electrode: glassy carbon; Counter electrode: Pt foil; Reference electrode: Ag wire.
FIGS. 6a and 6b compare the cyclic voltammetry curves of 0.1 M 2-[(2,5-dihydroxyphenyl) sulfanyl]ethan-1-amonium chloride in concentrated LiTFSI and BMImCl without and with the addition of 1 M HCl. Potential sweep rate: 20 mV s^−1. Working electrode: glassy carbon; Counter electrode: Pt foil; Reference electrode: Ag wire.
CV measurements were performed in a three-electrode cell consisting of a glassy carbon rod working electrode, a platinum foil counter electrode and a silver wire quasi-reference electrode. CV measurements of 2-methoxyhydroquinone in water (FIG. 2a) and different aqueous ionic liquids and salt (FIG. 2b) were performed.
For the CV measurement in water, KCl was added as supporting salt. […] The average redox potential in water is 0.27 V vs. Ag but with large peak separation of 0.64 V (FIG. 2a).

[3] = 10 m BMImCl-H2O, aqueous with cosolvent or surfactant or cyclodextrin, 10 m BMImCl-H2O, a: without additive
[4] = 10 m LiTFSI-H2O, aqueous with cosolvent or surfactant or cyclodextrin, 10 m LiTFSI-H2O, a: without additive
[5] = 10 m LiTFSI-H2O, aqueous with cosolvent or surfactant or cyclodextrin, LiTFSI—H2O (10 m), neutral, no additive
[6] = 10 m TBACl-H2O, aqueous with cosolvent or surfactant or cyclodextrin, 10 m TBACl-H2O, a: without additive
[7] = water, H2O, a: without additive
[8] = 10 m BMImCl-H2O, aqueous with cosolvent or surfactant or cyclodextrin, BMImCl—H2O (10 m / concentrated), neutral, no additive
[9] = 0.1 M in BMImCl—H2O, 20 mV s^−1
[10] = 0.1 M in LiTFSI—H2O, 20 mV s^−1
[11] = 0.1 M in 10 m BMImCl—H2O, 50 mV s^−1
[12] = 0.1 M in 10 m LiTFSI—H2O, 50 mV s^−1
[13] = 0.1 M in 10 m TBACl—H2O, 50 mV s^−1
[14] = 0.1 M in water, KCl supporting salt, 50 mV s^−1
[15] = BMImCl—H2O, acidic conditions (1 M HCl)
[16] = LiTFSI—H2O, acidic conditions (1 M HCl)
[17] = TBACl—H2O, acidic conditions (1 M HCl)
[18] = water, acidic conditions (1 M HCl)

COc1cc(O)cc(OC)c1O [2,6-dimethoxyhydroquinone]
solubility ([1]; 10 m BMImCl-H2O with 1 M HCl, aqueous with cosolvent or surfactant or cyclodextrin, 10 m BMImCl-H2O, b: with 1 M HCl): < 100 mM | solubility [1, 3]: < 100 mM | solubility ([1]; 10 m LiTFSI-H2O with 1 M HCl, aqueous with cosolvent or surfactant or cyclodextrin, 10 m LiTFSI-H2O, b: with 1 M HCl): 500 mM (≈ 85.1 mg/mL) | solubility [1, 4]: 700 mM (≈ 119 mg/mL) | solubility [1, 5]: 700 mM (≈ 119 mg/mL) | solubility ([1]; 10 m TBACl-H2O with 1 M HCl, aqueous with cosolvent or surfactant or cyclodextrin, 10 m TBACl-H2O, b: with 1 M HCl): 100 mM (≈ 17 mg/mL) | solubility [1, 6]: 200 mM (≈ 34 mg/mL) | Solubility (in words) ([1]; BMImCl—H2O): limited | Solubility (in words) ([1]; TBACl—H2O): limited | solubility ([1]; acidic LiTFSI-H2O, aqueous with cosolvent or surfactant or cyclodextrin, acidic LiTFSI—H2O): 500 mM (≈ 85.1 mg/mL) | Solubility (in words) ([1]; water): insoluble | solubility ([1]; water with 1 M HCl, aqueous buffer, H2O, b: with 1 M HCl): < 100 mM | solubility [1, 7]: < 100 mM

Cl.NCCSc1cc(O)ccc1O [2-[(2,5-dihydroxyphenyl)sulfanyl]ethan-1-aminium chloride]
solubility [1, 8]: 1200 mM | solubility ([1]; acidic BMImCl-H2O, aqueous with cosolvent or surfactant or cyclodextrin, acidic BMImCl—H2O): 900 mM | solubility ([1]; pure water): 2000 mM | average oxidation and reduction potential ([2]; 0.1 M in BMImCl—H2O with addition of HCl (1 M), 20 mV s^−1): 0.61 V | average oxidation and reduction potential [2, 9]: 0.50 V vs. Ag | peak separation [2, 9]: 0.61 V | reduction of peak separation on addition of HCl ([2]; 0.1 M in BMImCl—H2O, with vs. without HCl (1 M)): 0.07 V | oxidation peak [2, 10]: 0.70 V vs. Ag | reduction peak [2, 10]: 0.08 V vs. Ag | redox reversibility ([2]; 0.1 M in pure water and in 1 M HCl, 20 mV s^−1): poor redox reversibility | stability and reversibility ([2]; in aqueous ionic liquids or lithium salt): excellent stability and reversibility | chemical and electrochemical stability ([2]; in water): chemically and electrochemically instable

CC[N+](CC)(CC)Cc1ccc2c(c1)C(=O)c1ccccc1C2=O.[Br-] [2-methanaminium-N,N,N-triethyl-9,10-anthraquinone bromide]
Solubility (in words) ([1]; 5 m LiTFSI—H2O): poor | solubility [1, 3]: < 100 mM | solubility ([1]; 10 m LiTFSI with triethanolamine, aqueous with cosolvent or surfactant or cyclodextrin, 10 m LiTFSI with 0.3 g triethanolamine per milliliter): 300 mM | solubility [1, 4]: 500 mM | solubility [1, 5]: 500 mM | solubility ([1]; 10 m TBACl-H2O with triethanolamine, aqueous with cosolvent or surfactant or cyclodextrin, 10 m TBACl-H2O, c: with 0.3 g triethanolamine per mL solvent): < 100 mM | solubility [1, 6]: < 100 mM | Solubility (in words) ([1]; 15 m LiTFSI—H2O): soluble | solubility ([1]; supporting electrolyte, aqueous with cosolvent or surfactant or cyclodextrin, 10 m BMImCl-H2O, c: with 0.3 g triethanolamine per mL solvent): < 100 mM | solubility ([1]; supporting electrolyte, aqueous with cosolvent or surfactant or cyclodextrin, 10 m LiTFSI-H2O, c: with 0.3 g triethanolamine per mL solvent): 300 mM | solubility ([1]; supporting electrolyte, aqueous with cosolvent or surfactant or cyclodextrin, H2O, c: with 0.3 g triethanolamine per mL solvent): < 100 mM | solubility [1, 7]: < 100 mM

COc1cc(O)ccc1O [2-methoxyhydroquinone]
solubility [1, 8]: 6000 mM (≈ 841 mg/mL) | solubility [1, 5]: 4200 mM (≈ 589 mg/mL) | solubility ([1]; pure water, water): 1800 mM (≈ 252 mg/mL) | average redox potential [2, 11]: 0.51 V vs. Ag | peak separation [2, 11]: 0.53 V | average redox potential [2, 12]: 0.38 V vs. Ag | peak separation [2, 12]: 0.48 V | average redox potential [2, 13]: 0.54 V vs. Ag | polarization (peak separation) [2, 13]: 0.87 V | average redox potential [2, 14]: 0.27 V vs. Ag | peak separation [2, 14]: 0.64 V | peak separation ([2]; 10 m BMImCl—H2O with 1 M H3PO4): 0.42 V | average redox potential ([2]; 10 m BMImCl—H2O with H3PO4 from 1 M to 3 M): 0.50 V vs. Ag | peak separation [2, 15]: 0.30 V | redox potential [2, 15]: 0.58 V vs. Ag | peak separation [2, 16]: 0.38 V | redox potential [2, 16]: 0.55 V vs. Ag | peak separation [2, 17]: 0.54 V | redox potential [2, 17]: 0.58 V vs. Ag | peak separation [2, 18]: 0.40 V | redox potential [2, 18]: 0.35 V vs. Ag

COc1cc(C=O)ccc1O [vanillin, Vanillin]
solubility [1, 3]: 4000 mM (≈ 609 mg/mL) | solubility [1, 8]: 4000 mM (≈ 609 mg/mL) | solubility [1, 4]: 4000 mM (≈ 609 mg/mL) | solubility [1, 5]: 4000 mM (≈ 609 mg/mL) | solubility [1, 6]: 4000 mM (≈ 609 mg/mL) | solubility ([1]; TBACl-H2O, aqueous with cosolvent or surfactant or cyclodextrin, TBACl—H2O): 4000 mM (≈ 609 mg/mL) | Solubility (in words) ([1]; water): slightly soluble | solubility [1, 7]: < 100 mM

Reference: patent publication US20210043958A1, “AQUEOUS COMPOSITION AS ELECTROLYTE COMPRISING IONIC LIQUIDS OR LITHIUM SALTS” (KIST EUROPE FORSCHUNGSGESELLSCHAFT MBH, priority 2018, published 2021)
